“And” between values parts separate entries of the source, which are not always exact repeats. Equal entries are not always repeated.
System: 596521-263-R-J1-PDC complex spheroid growth
Assay: Anticancer human tumor 596521-263-R-J1-PDC patient-derived soft tissue sarcoma cell line growth inhibition [Asc]
Conditions: for viability, T/C: stronger effect = lower value
Summary of the method: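 Spheroid model: tumor line + HUVEC + hMSC. Single agents and combinations; top conc. at/near clinical Cmax (10 microM if undetermined), half-log dilutions. DMSO stocks at 800-fold test concentration.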

[1] = curve of first compound, second compound 0.0316 µM
[2] = curve of first compound, second compound 0.1 µM
[3] = curve of first compound, second compound 0.316 µM
[4] = curve of first compound, second compound 1 µM
[5] = curve of first compound, second compound 3.16 µM
[6] = curve of first compound, second compound 10 µM
[7] = second compound 0.0316 µM, first compound 0.0316 µM
[8] = second compound 0.0316 µM, first compound 0.1 µM
[9] = second compound 0.0316 µM, first compound 0.316 µM
[10] = second compound 0.0316 µM, first compound 1 µM
[11] = second compound 0.1 µM, first compound 0.0316 µM
[12] = second compound 0.1 µM, first compound 0.1 µM
[13] = second compound 0.1 µM, first compound 0.316 µM
[14] = second compound 0.1 µM, first compound 1 µM
[15] = second compound 0.316 µM, first compound 0.0316 µM
[16] = second compound 0.316 µM, first compound 0.1 µM
[17] = second compound 0.316 µM, first compound 0.316 µM
[18] = second compound 0.316 µM, first compound 1 µM
[19] = second compound 1 µM, first compound 0.0316 µM
[20] = second compound 1 µM, first compound 0.1 µM
[21] = second compound 1 µM, first compound 0.316 µM
[22] = second compound 1 µM, first compound 1 µM
[23] = second compound 3.16 µM, first compound 0.0316 µM
[24] = second compound 3.16 µM, first compound 0.1 µM
[25] = second compound 3.16 µM, first compound 0.316 µM
[26] = second compound 3.16 µM, first compound 1 µM
[27] = second compound 10 µM, first compound 0.0316 µM
[28] = second compound 10 µM, first compound 0.1 µM
[29] = second compound 10 µM, first compound 0.316 µM
[30] = second compound 10 µM, first compound 1 µM
[31] = second compound 0.0316 µM, first compound 0.00316 µM
[32] = second compound 0.0316 µM, first compound 0.01 µM
[33] = second compound 0.1 µM, first compound 0.00316 µM
[34] = second compound 0.1 µM, first compound 0.01 µM
[35] = second compound 0.316 µM, first compound 0.00316 µM
[36] = second compound 0.316 µM, first compound 0.01 µM
[37] = second compound 1 µM, first compound 0.00316 µM
[38] = second compound 1 µM, first compound 0.01 µM
[39] = second compound 3.16 µM, first compound 0.00316 µM
[40] = second compound 3.16 µM, first compound 0.01 µM
[41] = second compound 10 µM, first compound 0.00316 µM
[42] = second compound 10 µM, first compound 0.01 µM
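Also: spheroids exposed to compounds for 7 days.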

SMILES: C#Cc1c(F)ccc2cc(O)cc(-c3ncc4c(N5CC6CCC(C5)N6)nc(OCC56CCCN5CC(F)C6)nc4c3F)c12 (stereo unspecified) + Cc1c(S(C)(=O)=O)c(-c2cc(F)cc(N3CCN(c4ccc(NS(=O)(=O)c5ccc(NC(CCN6CCC(C(=O)OCCCP(=O)(O)O)CC6)CSc6ccccc6)c(S(=O)(=O)C(F)(F)F)c5)cc4)CC3)c2)c(-c2ccc(Cl)cc2)n1C(C)C
- IC50 [1]: > 10000 nM
- IC50 [2]: > 10000 nM
- IC50 [3]: > 10000 nM
- IC50 [4]: > 10000 nM
- IC50 [5]: > 10000 nM
- IC50 [6]: 1680 nM
- viability, T/C [7]: 84.7%
- viability, T/C [8]: 89.1%
- viability, T/C [9]: 91%
- viability, T/C [10]: 98.1%
- viability, T/C (second compound 0.0316 µM, first compound 3.16 µM): 111%
- viability, T/C (second compound 0.0316 µM, first compound 10 µM): 85.7%
- viability, T/C [11]: 85.9%
- viability, T/C [12]: 107%
- viability, T/C [13]: 107%
- viability, T/C [14]: 95.5%
- viability, T/C (second compound 0.1 µM, first compound 3.16 µM): 95.6%
- viability, T/C (second compound 0.1 µM, first compound 10 µM): 87.8%
- viability, T/C [15]: 82.2%
- viability, T/C [16]: 81.8%
- viability, T/C [17]: 76.9%
- viability, T/C [18]: 83.6%
- viability, T/C (second compound 0.316 µM, first compound 3.16 µM): 100%
- viability, T/C (second compound 0.316 µM, first compound 10 µM): 68.4%
- viability, T/C [19]: 83.7%
- viability, T/C [20]: 84.2%
- viability, T/C [21]: 79.1%
- viability, T/C [22]: 83.4%
- viability, T/C (second compound 1 µM, first compound 3.16 µM): 69.3%
- viability, T/C (second compound 1 µM, first compound 10 µM): 60.5%
- viability, T/C [23]: 59.4%
- viability, T/C [24]: 65.3%
- viability, T/C [25]: 61%
- viability, T/C [26]: 57.1%
- viability, T/C (second compound 3.16 µM, first compound 3.16 µM): 60.4%
- viability, T/C (second compound 3.16 µM, first compound 10 µM): 42.6%
- viability, T/C [27]: 48.1%
- viability, T/C [28]: 47.8%
- viability, T/C [29]: 55.1%
- viability, T/C [30]: 60.7%
- viability, T/C (second compound 10 µM, first compound 3.16 µM): 43.7%
- viability, T/C (second compound 10 µM, first compound 10 µM): 37.2%

SMILES: CCN1C(C(=O)NC23CCC(C(=O)O)(CC2)CC3)C(c2cccc(Cl)c2F)C2(C(=O)Nc3cc(Cl)ccc32)C12CCCCC2 (stereo unspecified)
- viability, T/C (compound 0.00949 µM): 103% [middle of 8 runs]
- viability, T/C (compound 0.03 µM): 101% [middle of 8 runs]
- viability, T/C (compound 0.0949 µM): 103% [middle of 8 runs]
- viability, T/C (compound 0.3 µM): 105% [middle of 8 runs]
- viability, T/C (compound 0.949 µM): 102% [middle of 8 runs]
- viability, T/C (compound 3 µM): 95.7% [middle of 8 runs]
- IC50 (compound alone, run of 11/07/2022): > 3000 nM
- IC50 (curve of compound): > 3000 nM

SMILES: COc1c(OCCCN2CCOCC2)ccc2c3n(c(=NC(=O)c4cnc(N)nc4)nc12)CCN3 + Cc1c(S(C)(=O)=O)c(-c2cc(F)cc(N3CCN(c4ccc(NS(=O)(=O)c5ccc(NC(CCN6CCC(C(=O)OCCCP(=O)(O)O)CC6)CSc6ccccc6)c(S(=O)(=O)C(F)(F)F)c5)cc4)CC3)c2)c(-c2ccc(Cl)cc2)n1C(C)C
- IC50 [1]: 211 nM
- IC50 [2]: 142 nM
- IC50 [3]: 138 nM
- IC50 [4]: 73.7 nM
- IC50 [5]: 55.3 nM
- IC50 [6]: 8.21 nM
- viability, T/C [31]: 95.5%
- viability, T/C [32]: 90.8%
- viability, T/C [7]: 79.2%
- viability, T/C [8]: 67.3%
- viability, T/C [9]: 39.9%
- viability, T/C [10]: 29.4%
- viability, T/C [33]: 89.6%
- viability, T/C [34]: 92.5%
- viability, T/C [11]: 84.2%
- viability, T/C [12]: 54.6%
- viability, T/C [13]: 37.6%
- viability, T/C [14]: 25.6%
- viability, T/C [35]: 85.6%
- viability, T/C [36]: 84.2%
- viability, T/C [15]: 65.9%
- viability, T/C [16]: 58.1%
- viability, T/C [17]: 36.1%
- viability, T/C [18]: 25.4%
- viability, T/C [37]: 91.6%
- viability, T/C [38]: 76.1%
- viability, T/C [19]: 62%
- viability, T/C [20]: 47%
- viability, T/C [21]: 31.3%
- viability, T/C [22]: 24.9%
- viability, T/C [39]: 61.5%
- viability, T/C [40]: 62.9%
- viability, T/C [23]: 55.9%
- viability, T/C [24]: 43.1%
- viability, T/C [25]: 27.1%
- viability, T/C [26]: 18.5%
- viability, T/C [41]: 52.4%
- viability, T/C [42]: 50%
- viability, T/C [27]: 42.9%
- viability, T/C [28]: 41.2%
- viability, T/C [29]: 24.8%
- viability, T/C [30]: 13.4%

SMILES: CCN1CCN(Cc2ccc(Nc3ncc(F)c(-c4cc(F)c5nc(C)n(C(C)C)c5c4)n3)nc2)CC1 + Cc1c(S(C)(=O)=O)c(-c2cc(F)cc(N3CCN(c4ccc(NS(=O)(=O)c5ccc(NC(CCN6CCC(C(=O)OCCCP(=O)(O)O)CC6)CSc6ccccc6)c(S(=O)(=O)C(F)(F)F)c5)cc4)CC3)c2)c(-c2ccc(Cl)cc2)n1C(C)C
- IC50 [1]: > 1000 nM
- IC50 [2]: > 1000 nM
- IC50 [3]: > 1000 nM
- IC50 [4]: > 1000 nM
- IC50 [5]: > 1000 nM
- IC50 [6]: > 1000 nM
- viability, T/C [31]: 94.2%
- viability, T/C [32]: 95.2%
- viability, T/C [7]: 92%
- viability, T/C [8]: 84.3%
- viability, T/C [9]: 91.4%
- viability, T/C [10]: 97%
- viability, T/C [33]: 93.7%
- viability, T/C [34]: 91.5%
- viability, T/C [11]: 94.1%
- viability, T/C [12]: 81.1%
- viability, T/C [13]: 88.7%
- viability, T/C [14]: 82%
- viability, T/C [35]: 102%
- viability, T/C [36]: 79%
- viability, T/C [15]: 77.8%
- viability, T/C [16]: 75.7%
- viability, T/C [17]: 75.3%
- viability, T/C [18]: 83.8%
- viability, T/C [37]: 83%
- viability, T/C [38]: 73.9%
- viability, T/C [19]: 78.5%
- viability, T/C [20]: 70.5%
- viability, T/C [21]: 87.7%
- viability, T/C [22]: 67.1%
- viability, T/C [39]: 68.1%
- viability, T/C [40]: 69.6%
- viability, T/C [23]: 63.3%
- viability, T/C [24]: 59.6%
- viability, T/C [25]: 66.8%
- viability, T/C [26]: 66.4%
- viability, T/C [41]: 58.1%
- viability, T/C [42]: 57.1%
- viability, T/C [27]: 56%
- viability, T/C [28]: 54.8%
- viability, T/C [29]: 57%
- viability, T/C [30]: 55.1%

SMILES: C=C(F)C(=O)N1CCN(c2nc(OCC3CCCN3C)nc3c2CCN(c2cccc4cccc(Cl)c24)C3)CC1CC#N (stereo unspecified)
- viability, T/C (compound 0.0316 µM): 95.8% and 100%
- viability, T/C (compound 0.1 µM): 100% and 95.2%
- viability, T/C (compound 0.316 µM): 98.3% and 103%
- viability, T/C (compound 1 µM): 99.6% and 123%
- viability, T/C (compound 3.16 µM): 89.5% and 80.2%
- viability, T/C (compound 10 µM): 0.48% and 3.4%
- IC50 (curve of compound): 5270 nM and 4970 nM
